Experimental data from patent US7825127B2, “Method for treating cancer” (Takeda Pharmaceutical Company, Limited, priority 2006, dated 2010).

Columns and labels:
Test in all cases: Sulforhodamine B cell growth inhibitory assay
Type in all cases: cell-based
BT-474 = BT-474 (FIG. 2A), 5 days
Method: (§1) Sulforhodamine B staining method was used for cell growth inhibitory assay. Each cell was plated on a 96 well plate (Nunc). The next day, compound X was serially diluted and added thereto. The cell lines used and the terms of incubation of the compound are indicated separately. To immobilize the cells, 25% glutaraldehyde solution (Wako, 50 μL) was added to the culture medium (200 μL) and the mixture was left standing at room temperature for 15 min.
(§2) The plate was then washed once with PBS (Invitrogen), 200 μL of PBS was added, 25 μL of 50% trichloroacetic acid (Wako) was added, and the mixture was left standing at 4° C. for 1 hr or longer. The plate was washed 5 times with tap water, redundant water was removed by slamming the plate against paper towels. A 1% (W/W) acetic acid solution (50 μL) containing 0.4% (w/v) Sulforhodamine B (SRB, Sigma) was added to each well and, 15 min later, the plate was washed 3 times with 1% acetic acid solution. The plate was thoroughly dried, 10 mM Tris solution was added, and the mixture was stirred well in a plate shaker, and the absorbance at 550 nm was measured (Bio-Rad, Benchmark Plus).

MCF-7 = MCF-7 (FIG. 2C), 3 days
Method: as §1, §2

SK-BR-3 = SK-BR-3 (FIG. 2B), 5 days
Method: as §1, §2

CC(C)(O)CC(=O)NCCn1ccc2ncnc(Nc3ccc(Oc4cccc(C(F)(F)F)c4)c(Cl)c3)c21 [compound X, N-{2-[4-({3-chloro-4-[3-(trifluoromethyl)phenoxy]phenyl}amino)-5H-pyrrolo[3,2-d]pyrimidin-5-yl]ethyl}-3-hydroxy-3-methylbutanamide]
sensitivity of cells to growth inhibition (BT-474): high-sensitive | sensitivity of cells to growth inhibition (MCF-7): low-sensitive | sensitivity of cells to growth inhibition (SK-BR-3): high-sensitive
